Where “and” joins values, the source holds several entries; their conditions need not be identical. Equal values may be shown once. Entries after “also recorded” stand apart in the source; their conditions may differ.
What was measured:
[1] = system: P. cynomolgi sporozoite-infected rhesus macaques (hypnozoites, relapse); experiment: Radical cure in P. cynomolgi sporozoite-infected rhesus macaques; assay type: in vivo, Plasmodium cynomolgi
Protocol: Sporozoites were harvested from P. cynomolgi-infected mosquitoes, washed with phosphate-buffered saline (PBS), and diluted to 100,000 sporozoites (spz)/ml in PBS. One-milliliter aliquots of sporozoites were prepared and injected into monkeys via intravenous (i.v.) injection.
Monkeys were treated according to the schedule shown in Table 1 (stratification of treatment groups is given in the supplemental material). During treatment, monkeys were weighed daily and received the compound via gavage, followed by gastric feeding (weight change during treatment is shown in Table S6 in the supplemental material). Monkeys in the prophylaxis groups (groups 691-proph and 599-proph) were treated ∼20 min after the i.v. sporozoite injection. The other monkeys were treated when all the monkeys in the experiment (except those in the prophylaxis group) were blood-stage patent (at day 11 p.i.). To kill the blood-stage parasites, all monkeys received a 5-day treatment of 7.5 mg/kg of body weight of chloroquine (CQ) (intramuscular [i.m.] injection), during compound dosing. KDU691 was formulated in 0.5% methylcellulose and 0.5% Tween 80 in water. LMV599 was formulated as a solid dispersion in a solution containing 5.6% (wt/wt) Tween 80–44.4% hydroxypropyl methylcellulose (HPMC) E3–38.9% Soluplus–11.1% vitamin E D-alphatocopheryl polyethylene glycol 1000 succinate (TPGS).
Parasitemia was closely monitored by thin-film analysis. Animals were trained to present for thigh pricks, which was followed by a reward. Thin-film slides were stained with 20% Giemsa stain, and at least 50 fields (±20,000 erythrocytes [RBCs]) were analyzed with a bright-field microscope (×1,200 magnification). As soon as all monkeys other than the prophylactic treatment groups were blood-stage positive, treatment was started as indicated above (Table 1). After the last day of compound dosing, the absence of blood-stage parasites was confirmed by thin smears. From day 23 p.i., monkeys were monitored daily for relapses. The KDU691 radical-cure (group 691-RC) treatment and control groups were monitored until the first relapse. The LMV599 control (group 599-C), radical-cure (group 599-RC), and PQ radical-cure (group PQ-RC) treatment groups were monitored until the second relapse or until day 100 p.i. (whichever came first). At the end of the study, monkeys that had relapsed received a 14-day primaquine treatment, with a final check 2 weeks after the last primaquine dose.
(§1) P. cynomolgi sporozoite production
(§2) A monkey was infected with […] P. cynomolgi M strain blood stage parasites, thawed from a first passage stock (i.e. blood stage parasites from a monkey infected with P. cynomolgi M strain sporozoites). For each batch of sporozoites needed, a single monkey was infected with P. cynomolgi blood stage parasites.
(§3) At day 11 and 12 post infection 9 mL infected blood was collected into a Lithium-heparinised tube. The blood was kept at 38°C and fed approximately 500 three to five days old female Anopheles stephensi mosquitoes Sind-Kasur strain Nijmegen (Nijmegen University Medical Centre St Radboud, Department of Medical Microbiology) using a glass feeder system as described by Ponnudurai et al.. After the second bleed, the monkey was cured by three daily intramuscular injections of 7.5 mg/kg chloroquine, monitored for parasite clearance 24 days after chloroquine treatment and returned to colony.
(§4) Mosquitoes were kept in climate chambers at 25 °C and 80% humidity and were fed 5% D -glucose on cotton pads daily. Seven days after feeding on the infected rhesus blood, oocyst numbers were determined in midguts of ten individuals, using 1% mercurochrome stain. Mosquitoes were given a second (uninfected) blood meal immediately afterwards to promote sporozoite maturation and invasion of the salivary glands. Sporozoites were isolated from the P. cynomolgi infected mosquitoes around day16 after the infected blood meal.
In vivo monkey infection and treatment procedures […]

[2] = design: species or system rhesus macaques (Macaca mulatta); details: rhesus monkey, in vivo, po, 20 mg/kg
Description: Blood samples were collected for clinical evaluation and pharmacokinetic (PK) analysis (see Table S2 in the supplemental material).
Details of in vivo PK studies of KDU691 and LMV599 in CD-1 mice and monkeys can be found in the supplemental material.
as §1, §2, §3, §4
In vivo monkey infection and treatment procedures
Sporozoites were isolated from the P. cynomolgi infected mosquitoes around day16 after the infected blood meal. For this, mosquitoes were collected in a beaker and killed with 70% ethanol. After four washes in Leibovitz’ L15 medium containing 3% FCS and 2% pen/strep, salivary glands were dissected.
Salivary glands were kept on ice at all times, sporozoites were liberated by pottering. The sporozoites were washed with PBS, counted in a Burker-Turk chamber, and diluted to 100,000 spz/mL in PBS.
Aliquots of 1 mL were prepared and injected into monkeys via intravenous (i.v.) injection. […]
group (691-RC-high) and a control group (691-C)
KDU691 was formulated as a micro suspension in 0.5% Methylcellulose/0.5% Tween 80 in water, maximum one hour before dosing. The amount of KDU691 sufficient to treat all animals of one group was weighed, a microsuspension of 10 mg/mL in methylcellulose/tween was made and sonicated (Soniprep 150, Sanyo) with an amplitude of 12-15 µm for 15 min. The dose for each monkey was transferred to a 50 mL tube, which was vortexed extensively just before administration.
To collect samples for KDU691 PK analysis in monkeys, approximately 100 µL blood was taken from the calf vein for each time point and immediately spotted onto DBS filters (PKI Bioanalysis cards, Perkin Elmer). […]
The monkeys of the LMV599/PQ experiment were cured with a five day CQ treatment (7.5 mg/kg, i.m. administration) at the first relapse and were monitored until the second relapse after which they were cured with CQ (7.5 mg/kg, intramuscular (i.m.) for five days) plus PQ (1.8 mg/kg for 14 days). […]

SMILES: CNC(=O)c1ccc(-c2cnc3cnc(C(=O)N(C)c4ccc(Cl)cc4)cn23)cc1 [KDU691]
- radical-cure outcome ([1]; five daily oral doses of 20 mg/kg from day 11 p.i., 20 mg/kg): did not prevent relapse; also recorded: none of the animals treated with KDU691 were radically cured
- Day p.i. to first relapse ([1]; group 691-RC, 20 mg/kg oral for 5 days from day 11 p.i. plus CQ, individual monkeys): 31 day p.i. and 32 day p.i.
- day p.i. to first relapse, group mean ± SD ([1]; group 691-RC, 20 mg/kg oral for 5 days from day 11 p.i., control 25 ± 1.4): 31.8 ± 0.5 days p.i.
- delay to relapse compared to the control group ([1]; group 691-RC, 20 mg/kg oral for 5 days, P = 0.00912, log rank test): 6.8 days
- Day p.i. to primary parasitemia ([1]; group 691-RC, individual monkeys, baseline, before dosing started at day 11 p.i.): 9 day p.i.
- % fT > TRE [2]: 16.7%
- AUC [2]: 38.82 µM·h
- Cmax [2]: 4.31 µM
- fAUC/TRE [2]: 13.08
- fCmax/TRE [2]: 1.45

Source: publication PMC4862498, “PI4 Kinase Is a Prophylactic but Not Radical Curative Target in Plasmodium vivax-Type Malaria Parasites” (Antimicrobial Agents and Chemotherapy, 2016)
